Measured values published in patent US9624247B2, “Pyrazolo-pyrrolidin-4-one derivatives as bet inhibitors and their use in the treatment of disease” (NOVARTIS AG, priority 2013, dated 2017).

Experiments:
[1] = system: K-562 cells; assay: Cell growth inhibition assay (CellTiter-Glo), K-562; format: cell-based, human; settings: K-562, 4 days; for GI50: Homo sapiens, K562, 96 h, half-maximal growth inhibition; for K-562 TGI: total growth inhibition
Summary of the method: (§1)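 Leukemia cells were exposed for 4 days at 37 °C to 3-fold dilution series from 10 μM (0.1% DMSO), then viable cells were quantified by CellTiter-Glo ATP luminescence. Signal was corrected for background and a day-0 plate, with vehicle set at 100% and medium-only at −100%. IC50 and TGI were obtained by four-parameter fit.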

[2] = system: THP-1 cells; assay: Cell growth inhibition assay (CellTiter-Glo), THP-1; format: cell-based, human; settings: THP-1, 4 days; for GI50: Homo sapiens, 96 h, half-maximal growth inhibition; for THP-1 TGI: total growth inhibition
Summary of the method: as §1

[3] = system: MV-4-11 cells; assay: Cell growth inhibition assay (CellTiter-Glo), MV-4-11; format: cell-based, human; settings: MV-4-11, 4 days; for GI50: Homo sapiens, MV4-11, 96 h, half-maximal growth inhibition; for MV-4-11 TGI: total growth inhibition
Summary of the method: as §1

[4] = biological target: BRD3 (His-Brd3(20-477)) (Homo sapiens (Human), UniProt Q15059); assay: TR-FRET in-vitro binding assay for BRD3; settings: acetyl-histone H4 peptide
Sequence of BRD3 (His-Brd3(20-477)) (Q15059 20-477): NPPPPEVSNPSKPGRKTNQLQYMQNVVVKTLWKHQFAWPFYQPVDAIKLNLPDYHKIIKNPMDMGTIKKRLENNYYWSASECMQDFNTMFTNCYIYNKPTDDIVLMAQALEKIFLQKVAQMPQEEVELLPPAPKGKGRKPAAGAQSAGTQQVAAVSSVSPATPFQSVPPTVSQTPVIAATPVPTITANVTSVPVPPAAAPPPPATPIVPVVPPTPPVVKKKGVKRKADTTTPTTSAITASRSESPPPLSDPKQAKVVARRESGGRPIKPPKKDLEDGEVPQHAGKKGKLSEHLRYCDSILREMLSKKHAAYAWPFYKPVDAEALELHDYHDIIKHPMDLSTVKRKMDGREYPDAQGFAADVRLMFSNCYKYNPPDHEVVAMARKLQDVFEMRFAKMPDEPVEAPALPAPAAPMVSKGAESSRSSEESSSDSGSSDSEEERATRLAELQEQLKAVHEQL

SMILES | GI50 [1] [nM] | K-562 TGI [1] [nM] | GI50 [2] [nM] | THP-1 TGI [2] [nM] | GI50 [3] [nM] | MV-4-11 TGI [3] [nM] | IC50 [4] [nM]
COCCn1nc(C2CC2)c2c1C(c1ccc(Cl)cc1)N(c1cc(C)c3nnc(CF)n3c1)C2=O (centres unmarked) [Example 18, 6-(4-chlorophenyl)-3-cyclopropyl-5-(3-(fluoromethyl)-8-methyl-[1,2,4]triazolo[4,3-a]-pyridin-6-yl)-1-(2-methoxyethyl)-5,6-dihydropyrrolo[3,4-c]pyrazol-4(1H)-one] | 139 | >10000 | 19.2 | 46.45 | 6.73 | 13.25 | 24
Cc1cc(N2C(=O)c3c(C4CC4)nn(C)c3[C@H]2c2ccc(Cl)cc2)cn2c(C)nnc12 [Example 2, (R)-6-(4-chlorophenyl)-3-cyclopropyl-5-(3,8-dimethyl-[1,2,4]triazolo[4,3-a]pyridin-6-yl)-1-methyl-5,6-dihydropyrrolo[3,4-c]pyrazol-4(1H)-one] | 29.2 | >10000 | 6.37 | 14.95 | 4.31 | 11.21 | 12
COc1cc(N2C(=O)c3c(C4CC4)nn(C)c3C2c2ccc(Cl)cc2)cn2c(C)nnc12 (racemic) [Example 5, 6-(4-chlorophenyl)-3-cyclopropyl-5-(8-methoxy-3-methyl-[1,2,4]triazolo[4,3-a]pyridin-6-yl)-1-methyl-5,6-dihydropyrrolo[3,4-c]pyrazol-4(1H)-one] | 373 | >10000 | 81.4 | 147.5 | 64.9 | 104 | 44
Cc1cc(N2C(=O)c3c(C4CC4)nn(C)c3C2c2ccc(Cl)cc2)cn2c(C(F)F)nnc12 (racemic) [Example 3, 6-(4-chlorophenyl)-3-cyclopropyl-5-(3-(difluoromethyl)-8-methyl-[1,2,4]triazolo[4,3-a]pyridin-6-yl)-1-methyl-5,6-dihydropyrrolo[3,4-c]pyrazol-4(1H)-one] | 73.5 | >10000 | 12.4 | 29.45 | 9.49 | 23.45 | < 11
COCCn1nc(C2CC2)c2c1C(c1ccc(Cl)cc1)N(c1cc(C)c3nnc(C)n3c1)C2=O (racemic) [Example 4, 6-(4-chlorophenyl)-3-cyclopropyl-5-(3,8-dimethyl-[1,2,4]triazolo[4,3-a]pyridin-6-yl)-1-(2-methoxyethyl)-5,6-dihydropyrrolo[3,4-c]pyrazol-4(1H)-one] | 56.8 | >10000 | 11.9 | 27.95 | 9.36 | 20.8 | < 11
COc1cc(N2C(=O)c3c(C4CC4)nn(C)c3C2c2ccc(Cl)cc2)cc2c1nnn2C (centres unmarked) [Example 6] | 204 | >10000 | 63 | 118.1 | 44.5 | 90.25 | 25
Cc1nnc2c(NC(=O)OC(C)(C)C)cc(N3C(=O)c4c(C5CC5)nn(C)c4C3c3ccc(Cl)cc3)cn12 (centres unmarked) [Example 27, tert-butyl (6-(6-(4-chlorophenyl)-3-cyclopropyl-1-methyl-4-oxopyrrolo[3,4-c]pyrazol-5(1H,4H,6H)-yl)-3-methyl-[1,2,4]triazolo[4,3-a]pyridin-8-yl)carbamate] | 164 | >10000 | 22.8 | 44.65 | 11.1 | 22.6 | 65
Cc1cc(N2C(=O)c3c(C4CC4)nn(C)c3C2c2ccc(Cl)cc2)cn2c(C)nnc12 (centres unmarked) [Example 1, 6-(4-chlorophenyl)-3-cyclopropyl-5-(3,8-dimethyl-[1,2,4]triazolo[4,3-a]pyridin-6-yl)-1-methyl-5,6-dihydropyrrolo[3,4-c]pyrazol-4(1H)-one] | 51.9 | >10000 | 9.6 | 20.4 | 5.42 | 10.7 | 31
CCOC(=O)Nc1cc(N2C(=O)c3c(C4CC4)nn(C)c3C2c2ccc(Cl)cc2)cn2c(C)nnc12 (centres unmarked) [Example 29, ethyl (6-(6-(4-chlorophenyl)-3-cyclopropyl-1-methyl-4-oxopyrrolo[3,4-c]pyrazol-5-(1H,4H,6H)-yl)-3-methyl-[1,2,4]triazolo[4,3-a]pyridin-8-yl)carbamate] | 23.6 | >10000 | 2.59 | 7.62 | 1.13 | 1.97 | 22
Cc1cc(N2C(=O)c3c(C4CC4)nn(C)c3C2c2ccc(Cl)cc2)cn2c(CF)nnc12 (racemic) [Example 16, 6-(4-chlorophenyl)-3-cyclopropyl-5-(3-(fluoromethyl)-8-methyl-[1,2,4]triazolo[4,3-a]-pyridin-6-yl)-1-methyl-5,6-dihydropyrrolo[3,4-c]pyrazol-4(1H)-one] | 122 | >10000 | 18.7 | 51.6 | 6.07 | 11.3 | 13
Cc1cc(N2C(=O)c3c(C4CC4)nn(C)c3[C@H]2c2ccc(Cl)cc2)cn2c(C(F)F)nnc12 [Example 7, (R)-6-(4-chlorophenyl)-3-cyclopropyl-5-(3-(difluoromethyl)-8-methyl-[1,2,4]triazolo-[4,3-a]pyridin-6-yl)-1-methyl-5,6-dihydropyrrolo[3,4-c]pyrazol-4(1H)-one] | 46.3 | >10000 | 5.65 | 14.8 | 2.45 | 6.275 | 12
